Assays:
animals = assay: Anti-hypertensive effect when administered to animals parenterally or orally; type: in vivo; settings: in words
Mice = assay: Acute toxicity determination in mice (ALD50, ip); type: in vivo, female Swiss-Webster mice; settings: in words, compared with the other compounds of the series
Experimental: (§1) Biological Methods--Acute toxicity determinations were performed in female Swiss-Webster mice, 15-24 g. Compounds were administered in aqueous solutions or as suspensions in 1% tragacanth by the intraperitoneal route to groups of three or more mice.

[1] = Acute toxicity determination in mice (ALD50, ip); type: in vivo, female Swiss-Webster mice; settings: in vivo, mouse, ip, 24 hours after administration
Experimental: as §1

[2] = test system: Desoxycorticosterone Hypertensive Rats; assay: Cardiovascular activity (blood pressure and heart rate) in desoxycorticosterone hypertensive rats; type: in vivo, male Charles River rats; settings: 24 hr
Experimental: The indirect measurements of blood pressure and heart rate were determined in male Charles River rats made hypertensive (systolic blood pressure >159 mm Hg) by subcutaneously implanting a wax-formulated pellet containing 10 mg of desoxycorticosterone acetate. Systolic blood pressure was measured in the caudal arteries of prewarmed (40° C.), unanesthetized, restrained animals by a pneumatic pulse transducer placed distal to an automated tail pressure cuff and was recorded on a physiograph. Heart rate was determined from the amplified pulse waves recorded during the blood pressure measurements. Prior to the actual experiments, animals were accustomed to the measurement handling procedure several times during the preceding weeks.
Control systolic blood pressure and heart rates were determined in a group of usually six hypertensive rats on each day. A compound for evaluation was administered by intraperitoneal injection either in solution or as a suspension at 24 hr. intervals following injection. Mean values of the group for these parameters at a particular measurement period were calculated, and then the mean difference from control, along with its associated standard error, was calculated for each period. The statistical significance of the changes produced by a compound was tested by an analysis of variance and the Newman-Keuls a posteriori test when F was significant. A probability level of 0.05 or less was accepted as a significant change.
All compounds synthesized in this series, except V, were tested at a dosage level of 100 mg/kg. […] Another group of hypertensive rats was injected with 0.9% NaCl in a dose of 1 ml/kg. The latter group was included as a placebo group for the entire study.

[3] = test system: Desoxycorticosterone Hypertensive Rats; assay: as above; type: in vivo, male Charles River rats
[4] = 10 mg/kg ip, solution in distilled water, 1 hr
[5] = 10 mg/kg ip, solution in distilled water, 2 hr
[6] = 10 mg/kg ip, solution in distilled water, 4 hr
[7] = 10 mg/kg ip, solution in distilled water, 24 hr
[8] = 25 mg/kg ip, solution in distilled water, 4 hr
[9] = 100 mg/kg ip, suspension in 1% tragacanth
[10] = 100 mg/kg ip, suspension in 1% tragacanth, 1 hr
[11] = 100 mg/kg ip, suspension in 1% tragacanth, 2 hr
[12] = 100 mg/kg ip, suspension in 1% tragacanth, 4 hr
[13] = 50 mg/kg ip, suspension in 1% tragacanth, 1 hr
[14] = 50 mg/kg ip, suspension in 1% tragacanth, 2 hr
[15] = 50 mg/kg ip, suspension in 1% tragacanth, 4 hr
[16] = 50 mg/kg ip, suspension in 1% tragacanth, 24 hr

Row | SMILES | LD50 at 24 h ([1]; suspension in 1% tragacanth) [mg/kg] | Mean change in heart rate from control ± SE [2, 9] | Mean change in systolic blood pressure from control ± SE [2, 9] [mm Hg] | Mean change in heart rate from control ± SE [3, 10] | Mean change in systolic blood pressure from control ± SE [3, 10] [mm Hg] | Mean change in heart rate from control ± SE [3, 11] | Mean change in systolic blood pressure from control ± SE [3, 11] [mm Hg] | Mean change in heart rate from control ± SE [3, 12] | Mean change in systolic blood pressure from control ± SE [3, 12] | also measured
1 | Cc1cc2c(cc1CCN)CCC2 [5-aminoethyl-6-methylindan] | – | – | – | – | – | – | – | – | – | hypotensive properties (animals): has hypotensive properties; anti-hypertensive effect (animals; as base or acid addition salt, animals, parenterally or orally): exert an anti-hypertensive effect
2 | Cc1cc2c(cc1CCN)CCC2.Cl [Compound V, 5-Aminoethyl-6-methylindan HCl] | – | – | – | – | – | – | – | – | – | relative toxicity in the mouse (Mice): relatively more toxic in the mouse; LD50 at 24 h ([1]; solution in distilled water): 79 to 89 mg/kg; Mean change in heart rate from control ± SE ([2]; 25 mg/kg ip, solution in distilled water): -26 ± 14 beats per minute; Mean change in heart rate from control ± SE [3, 4]: +32 ± 17 beats per minute; Mean change in systolic blood pressure from control ± SE [3, 4]: -24 ± 8 mm Hg; Mean change in heart rate from control ± SE [3, 5]: +34 ± 14 beats per minute; Mean change in systolic blood pressure from control ± SE [3, 5]: -24 ± 4 mm Hg; Mean change in heart rate from control ± SE [3, 6]: +25 ± 11 beats per minute; Mean change in systolic blood pressure from control ± SE [3, 6]: -15 ± 5 mm Hg; Mean change in heart rate from control ± SE [3, 7]: -4 ± 11 beats per minute; Mean change in systolic blood pressure from control ± SE [3, 7]: -6 ± 4 mm Hg; Mean change in heart rate from control ± SE [3, 8]: +20 ± 21 beats per minute; Mean change in systolic blood pressure from control ± SE [3, 8]: -18 ± 4 mm Hg; Mean change in systolic blood pressure from control ± SE ([3]; 25 mg/kg ip, solution in distilled water, 24 hr): -11 ± 2 mm Hg
3 | COc1cc2c(cc1CCNC(=O)c1ccccc1)CCC2 [I, 5-Benzoylaminoethyl-6-methoxyindan] | > 1000 | -67 ± 22 beats per minute | -13 ± 4 | -20 ± 23 beats per minute | -18 ± 8 | +9 ± 30 beats per minute | -24 ± 7 | -14 ± 18 beats per minute | -12 ± 6 mm Hg | –
4 | COc1cc2c(cc1CCNC(=O)c1cc(OC)c(OC)c(OC)c1)CCC2 [II, 5-(3,4,5-Trimethoxybenzoyl)aminoethyl-6-methoxyindan] | > 1000 | -4 ± 10 beats per minute | -16 ± 4 | +23 ± 28 beats per minute | -27 ± 8 | +10 ± 28 beats per minute | -35 ± 13 | +47 ± 29 beats per minute | -12 ± 8 mm Hg | –
5 | COc1cc2c(cc1CCNC(=O)Cc1ccccc1)CCC2 [III, 5-Phenylacetylaminoethyl-6-methoxyindan] | 1000 to 1500 | +61 ± 12 beats per minute | -13 ± 4 | +13 ± 12 beats per minute | -32 ± 7 | +54 ± 25 beats per minute | -24 ± 5 | +19 ± 21 beats per minute | -21 ± 4 mm Hg | –
6 | COc1cc2c(cc1CCNC(=O)Cc1ccc(OC)c(OC)c1)CCC2 [IV, 5-(3,4-Dimethoxyphenylacetyl)aminoethyl-6-methoxyindan] | 500 to 1000 | -27 ± 2 beats per minute | -19 ± 4 | +23 ± 29 beats per minute | -10 ± 4 | +57 ± 31 beats per minute | -10 ± 2 | +14 ± 12 beats per minute | -19 ± 3 mm Hg | –
7 | C[C@](N)(Cc1ccc(O)c(O)c1)C(=O)O [Methyldopa, reference compound] | – | – | – | – | – | – | – | – | – | Mean change in heart rate from control ± SE [3, 13]: +106 ± 26 beats per minute; Mean change in systolic blood pressure from control ± SE [3, 13]: -31 ± 4 mm Hg; Mean change in heart rate from control ± SE [3, 14]: +104 ± 28 beats per minute; Mean change in systolic blood pressure from control ± SE [3, 14]: -50 ±4 mm Hg; Mean change in heart rate from control ± SE [3, 15]: +31 ± 39 beats per minute; Mean change in systolic blood pressure from control ± SE [3, 15]: -48 ± 6 mm Hg; Mean change in heart rate from control ± SE [3, 16]: -19 ± 12 beats per minute; Mean change in systolic blood pressure from control ± SE [3, 16]: -16 ± 5 mm Hg; change in mean systolic blood pressure from control levels ([3]; in words, hypertensive rats, reference standards): significant depressions in mean systolic blood pressure from control levels
8 | COc1ccc(CC(=O)NCCc2cc3c(cc2C)CCC3)cc1OC [VII, N-(3,4-Dimethoxyphenylacetyl)-5-aminoethyl-6-methylindan] | > 1000 | +22 ± 12 beats per minute | -3 ± 7 | +43 ± 10 beats per minute | -2 ± 6 | +47 ± 12 beats per minute | -4 ± 9 | +37 ± 15 beats per minute | +2 ± 5 mm Hg | –
9 | COc1ccc(CNCCc2cc3c(cc2C)CCC3)cc1OC.Cl [VIII, N-(3,4-Dimethoxybenzyl)-5-aminoethyl-6-methylindan hydrochloride] | 140 to 178 | -14 ± 10 beats per minute | -17 ± 2 | -55 ± 17 beats per minute | -58 ± 4 | 0 ± 14 beats per minute | -60 ± 7 | +4 ± 8 beats per minute | -47 ± 2 mm Hg | –
10 | Cc1cc2c(cc1CCNC(=O)Cc1ccccc1)CCC2 [VI] | > 1000 | +2 ± 17 beats per minute | -3 ± 10 | +17 ± 17 beats per minute | -7 ± 7 | +24 ± 11 beats per minute | -2 ± 6 | +23 ± 13 beats per minute | -1 ± 7 mm Hg | –

From patent publication US4232014A, “Aminoalkylindans and use as hypotensive agents” (Marion Laboratories, Inc., priority 1979, dated 1980)
